In US10052317B2, “Method for treating or preventing hot flushes” (Imperial Innovations Limited, priority 2013, dated 2018):
*1 amine or outer side, *2 acyl side, *3 side chain or, on linkers, in order; H or OH if unused. Where a SMILES comes first, the peptide text is derived from it. [ ]: non-standard residue; d: D form. NMeF = CN[C@@H](Cc1ccccc1)C(=O)O; Suc = O=C(CCC(=O)[*:2])[*:1]

How the values were obtained:
NKR3 = biological target: T1, NKR3 (Homo sapiens, UniProt P29371); details: literature (Spooren 2006; Griebel 2012; Elmore 2011); cited from earlier work
T1 sequence (P29371 1-465): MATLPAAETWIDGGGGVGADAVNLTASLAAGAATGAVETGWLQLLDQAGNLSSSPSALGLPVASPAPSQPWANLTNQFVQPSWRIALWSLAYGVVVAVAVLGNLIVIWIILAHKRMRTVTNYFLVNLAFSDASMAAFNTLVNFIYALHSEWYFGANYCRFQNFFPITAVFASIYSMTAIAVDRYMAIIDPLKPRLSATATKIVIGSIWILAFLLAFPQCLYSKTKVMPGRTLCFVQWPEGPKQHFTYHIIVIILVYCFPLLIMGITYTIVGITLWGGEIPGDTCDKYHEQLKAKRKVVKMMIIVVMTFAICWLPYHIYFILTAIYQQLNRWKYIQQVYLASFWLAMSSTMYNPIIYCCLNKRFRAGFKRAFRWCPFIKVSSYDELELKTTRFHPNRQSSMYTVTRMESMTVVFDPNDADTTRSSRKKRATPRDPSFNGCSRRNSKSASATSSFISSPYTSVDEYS

ovariectomised rats = details: Dacks et al. 2011; cited from earlier work
healthy male subjects = test: Dose-finding study with 90-min intravenous infusion of NKB to healthy men; type: in vivo, human
Source text: Human sequence neurokinin B was synthesised by Bachem Holding AG (Bubendorf, Switzerland), and purified by reverse-phase high performance liquid chromatography (HPLC). Electrospray mass spectroscopy and amino acid analysis confirmed identity of the peptide (lot:3007511). The Limulus amoebocyte lysate test detected no endotoxin (Associates of Cape Cod, Liverpool, UK), and bacterial culture was sterile (Department of Microbiology, Hammersmith Hospital, London, UK) in samples of neurokinin B peptide. Vials of freeze-dried neurokinin B were stored at −20° C. and reconstituted in 0.9% saline.
23 healthy male subjects participated in the study (mean age of 23 subjects: 29.0±1.3 years; mean body mass index of 23 subjects: 23.3±0.3 kg/m2), following ethical approval (reference:10/H0707/68) and written consent, in accordance with The Declaration of Helsinki. No subjects had any history of hot flushes, deficient levels of sex hormones, or were receiving any regular medications.
Studies were performed in the Clinical Investigation Unit, during which subjects asked to lay supine. This study was blinded to subjects but not investigators. NKB was dissolved in a vehicle consisting of saline containing Gelofusin (5% vol/vol) (B. Braun Medical, Sheffield, UK) to minimize peptide adsorption. […] Heart rate, blood pressure, and adverse symptoms were recorded at regular intervals. […]

[1] = test system: healthy female volunteers; test: Symptom assessment study during 30-min iv infusion of NKB to healthy women; type: in vivo, human; details: 5.12 nmol/kg/min iv for 30 min
Source text: (§1) Five healthy female volunteers participated in the study (mean age 37.8±1.7y; mean body mass index 21.9±0.7 kg/m2), following ethical approval (reference: 10/H0707/68) and written consent, in accordance with The Declaration of Helsinki. Participants had no medical problems, were not on any regular medication and had regular menstrual cycles. Participants attended in the mornings and during the follicular phase of their menstrual cycle to minimise physiological changes in body temperature occurring during sleep and associated with ovulation (1) (Day of menstrual cycle: 8.0±0.9)
(§2) Human sequence neurokinin B was obtained and used as described above.
Participants were admitted in the morning to the Clinical Investigation Unit between days 3 and 10 of their menstrual cycle, and asked to lay supine for the 180 minute study duration (FIG. 2). A cannula was inserted into a large forearm vein and NKB (5.12 nmol/kg/min) was administered by intravenous (iv) infusion for 30 min commencing at t=90 min. This dose of NKB was selected as it was the maximal dose that was well-tolerated dose experiment 1, above. NKB was dissolved in saline containing gelofusin (5% vol/vol) (B. Braun Medical, Sheffield, UK) to minimize peptide adsorption (Kraegen E W, Lazarus L, Meler H, Campbell L, Chia Y O, Br Med J (1974), 3:464-466). Participants (but not investigators) were blinded as to the identity of the infusion (NKB or vehicle, however all participants received NKB). Participants were informed before the study that they may experience body sensations or symptoms and they were asked to report these in real time during the study. Participants were not specifically informed that they may experience ‘hot flush’ symptoms so as to minimise reporting bias.
Data are presented as mean±standard error of mean (SEM). Means were compared using two-tailed paired t-tests. p<0.05 was considered statistically significant.

[2] = test system: healthy female volunteers; test: Double-blinded placebo-controlled physiological assessment study during iv infusion of NKB and vehicle to healthy women; type: in vivo, human; details: for mean HR / mean skin temperature by skin probe / mean skin temperature by thermal imaging camera / mean MAP: NKB infusion
Source text: as §1, with “Ten” for “Five”, “35.3±1.3y;” for “37.8±1.7y;”, “22.1±0.7” for “21.9±0.7”, “5.9±0.6)” for “8.0±0.9)”
as §2
Having observed in Example 3 that participants reported flushing during NKB infusion, a double-blinded placebo-controlled study was carried out. This was performed in a climate-controlled Clinical Research Unit with ambient temperature 24° C. and humidity 50% as has been established in previous studies to be a suitable environment to investigate menopausal flushing (e.g. de Bakker I P, Everaerd W, Maturitas (1996) 25:87-98; Carpenter J S, Gilchrist J M, Chen K, Gautam S, Freedman R R, Menopause: The Journal of The North American Menopause Society (2004) 11:375-381). Participants were admitted on a morning between days 3 and 10 of their menstrual cycle, and asked to lay supine for the 270 minute study duration (FIG. 3). A cannula was inserted into a large forearm vein in both arms: one for collection of blood, and the second for vehicle (gelofusin) or NKB infusion. 30 minute iv infusion of either NKB ([…]) or vehicle (equivalent volume) were commenced at t=60 min and t=180 min, by an investigator blinded to the identity of each infusion. Each participant received one NKB infusion and one vehicle infusion, randomised and prepared by an independent investigator. Participants were informed that they could receive any of the following: NKB followed by vehicle; vehicle followed by NKB; NKB twice; vehicle twice. This strategy ensured integrity of blinding, since any symptoms experienced during the first infusion would not allow participants to automatically deduce the identity of the second infusion.
In order to prevent confounding factors which may affect flushing, participants were asked to refrain from hot drinks, caffeine, alcohol and spicy foods for 12 hours preceding the study start and for the duration of the study. All participants wore light cotton standard hospital gowns. All studies commenced between 9.30-10.30 am. Two experienced physicians were in attendance at all times. Symptoms, heart rate, blood pressure, sweating and skin temperature monitoring were performed as detailed below:
Heart Rate (HR) and Mean Arterial Blood Pressure (MAP): HR was recorded minutely for 20 minutes pre-infusion until 20 minutes post-infusion. MAP was recorded at 5 minute intervals (to minimize discomfort) for 20 minutes pre-infusion until 20 minutes post-infusion. At other times HR and MAP were recorded at 10 minute intervals (FIG. 3). MAP (in mmHg) was calculated using the following standard formula: MAP=((2×diastolic BP)+systolic BP)/3.
Skin Temperature: Skin temperature was recorded each minute for 20 minutes pre-infusion until 20 minutes post-infusion and at 10 minute intervals at other times. Skin temperature was measured by skin temperature probe attached to the neck (Mindray, Huntingdon, UK) and by thermal imaging camera (T440Bx, Flir, Wilsonville, USA). Thermal imaging temperature values were determined by in-built software which recorded the highest temperature point in a box constructed to contain the shoulders and head of the participant.
Skin Conductance: Increased skin conductance is an objective marker of sweating which occurs in menopausal flushing. […]

healthy female subjects = test: 180-min intravenous infusion of NKB to healthy women, hot flush symptom diary; type: in vivo, human
Protocol: Eight healthy female subjects participated in the study, following ethical approval (reference: 10/H0707/68) and written consent, in accordance with The Declaration of Helsinki. All subjects had regular periods. No subjects had any history of hot flushes, deficient levels of sex hormones, or were receiving any regular medications.
as §2
[…] Continuous cardiac monitoring was performed. Heart rate, blood pressure, and adverse symptoms were recorded at regular intervals. Participants were asked to complete a symptom diary in order to measure subjective frequency and problem rating of hot flushes during each study visit. All subjects also completed a questionnaire at the end of each study visit to summarise the symptoms that they experienced that day. Data was analysed by an investigator in a blinded manner.
Data are presented as mean±standard error of mean (SEM). Multiple means were compared using one-way ANOVA with Dunnett's post-hoc test. Pairs of means were compared using paired two-tailed t-tests.

[3] = 5.12 nmol/kg/h iv for 30 min, of the flushing participants
[4] = during flushing symptoms, p<0.05 vs. pre-symptoms
[5] = entire 30 minute NKB infusion period vs vehicle infusion period
[6] = over the entire duration of the infusion

## CC(=O)N(C)C1(c2ccccc2)CCN(CCC[C@]2(c3ccc(Cl)c(Cl)c3)CCCN(C(=O)c3ccccc3)C2)CC1 [Osanetant, (R)-N-{{3-[1-Benzoyl-3-(3,4-dichlorophenyl)piperidin-3-yl]prop-1-yl}-4-phenylpiperidin-4-yl}-N-methylacetamine]
NKR3
  selectivity for NKR3 over NKR1 and NKR2: selective for NKR3 over NKR1 and NKR2

## CC[C@H](NC(=O)c1c(O)c(-c2ccccc2)nc2ccccc12)c1ccccc1 [Talnetant, 3-hydroxy-2-phenyl-N-(1-phenylpropyl)quinoline-4-carboxamide]
NKR3
  selectivity for NKR3 over NKR1 and NKR2: selective for NKR3 over NKR1 and NKR2

## CSCC[C@H](NC(=O)[C@H](CC(C)C)NC(=O)CNC(=O)[C@H](Cc1ccccc1)N(C)C(=O)[C@H](Cc1ccccc1)NC(=O)[C@H](CC(=O)O)NC(=O)CCC(=O)O)C(N)=O [senktide] (Suc-DF[NMeF]GLM-NH2)
Ovariectomised rats
  core temperature: reduced core temperature

## NKB: Human sequence neurokinin B synthesised by Bachem, purified by reverse-phase HPLC; tachykinin peptide, natural ligand for NKR3
Healthy male subjects; 10.24 nmol/kg/h
  time to full resolution of symptoms after administration was discontinued: ≤ 5 min
Healthy male subjects; intravenous administration
  reproductive hormone secretion: did not stimulate significant reproductive hormone secretion
[1]
  participants experiencing flushing who reported a single flushing episode: Three of the four
  participants who experienced three flushing episodes: one
[1]; P<0.05 vs. vehicle
  participants reporting flushing during NKB infusion: four out of the five
[2]; 5.12 nmol/kg/h iv for 30 min
  onset of first flushing episodes after NKB infusion initiation: 1 to 12 min
  severity of flushing symptoms: mild to strong
[2]; 5.12 nmol/kg/h iv for 30 min, double-blinded
  participants who experienced flushing during NKB infusion: eight out of ten
[2]; [3]
  participants with a single flushing episode: five
  participants with three flushing episodes: two
  participants with two flushing episodes: one
[2]; 5.12 nmol/kg/h iv, of the flushing participants
  participants with concordant increases in sternal skin conductance at the time of flushing: six of the eight
[2]; [4]
  mean HR: 76.2±1.6 bpm
  mean skin temperature by skin probe: 34.7±0.3 Celsius
  mean skin temperature by thermal imaging camera: 36.8±0.1 Celsius
[2]; during flushing symptoms, p=ns vs. pre-symptoms
  mean MAP: 82.5±2.2 mmHg
[2]; pre-symptom period
  mean MAP: 83.2±8.6 mmHg
  mean skin temperature by skin probe: 34.6±0.2 Celsius
  mean skin temperature by thermal imaging camera: 36.7±0.1 Celsius
[2]; pre-symptom period, mean±SEM
  mean HR: 70.3±2.1 bpm
[2]; [5]
  change in serum FSH: No significant changes
  change in serum LH: No significant changes
  change in serum estradiol: No significant changes
[2]; [6]
  overall change in HR, NKB vs vehicle infusion: No overall changes
  overall change in mean arterial blood pressure (MAP), NKB vs vehicle infusion: No overall changes
  overall change in skin temperature (skin probe or thermal imaging camera), NKB vs vehicle infusion: No overall changes
Healthy female subjects; healthy women, iv infusion 0.64 nmol/kg/h (lowest dose)
  hot flushes experienced: No hot flushes were experienced
Healthy female subjects; iv infusion 1.28 nmol/kg/h
  healthy women who experienced hot flushes: 1/6
Healthy female subjects; iv infusion 2.56 nmol/kg/h
  healthy women who experienced hot flushes: 2/7
Healthy female subjects; iv infusion 5.12 nmol/kg/h (highest dose)
  healthy women who experienced hot flushes: 7/8
Healthy female subjects; iv infusion 5.12 nmol/kg/h, mean±SEM, P<0.01 vs. placebo (0)
  mean number of hot flushes per visit: 1.13±0.30
